# Test results published in ChEMBL document CHEMBL1150587, “Evaluation of the potential cancer chemotherapeutic efficacy of natural product isolates employing in vivo hollow fiber tests” (J Nat Prod, 2002).
# The source made the active and inactive calls. The rule behind the calls is not given here.
# Assays:
# Mus musculus [1] = experiment: Toxicity in tumor cell implanted NCr nu/nu mouse assessed as body weight change at 7.13 umol/kg, ip administered from day 3 to 6 after implantation measured on day 7; format: organism-based; conditions: in vivo
# Mus musculus [2] = experiment: Toxicity in tumor cell implanted NCr nu/nu mouse assessed as body weight change at 14.3 umol/kg, ip administered from day 3 to 6 after implantation measured on day 7; format: organism-based; conditions: in vivo
# Mus musculus [3] = experiment: Toxicity in tumor cell implanted NCr nu/nu mouse assessed as body weight change at 28.5 umol/kg, ip administered from day 3 to 6 after implantation measured on day 7; format: organism-based; conditions: in vivo
# Mus musculus [4] = experiment: Toxicity in NCr nu/nu mouse subcutaneously implanted with human KB cells assessed as mortality at 7.13 umol/kg, ip administered on day 10, 13, 16, 20 of implantation; format: organism-based; conditions: in vivo
# Lu1 [5] = experiment: Growth inhibition of human Lu1 cells implanted intraperitoneally to NCr nu/nu mouse at 7.13 to 28.5 umol/kg, ip administered from day 3 to 6 after implantation measured on day 7 by MTT-based hollow-fiber test; format: functional
# SW626 [6] = experiment: Growth inhibition of human SW626 cells implanted intraperitoneally to NCr nu/nu mouse at 7.13 to 28.5 umol/kg, ip administered from day 3 to 6 after implantation measured on day 7 by MTT-based hollow-fiber test; format: functional
# LNCaP [7] = experiment: Growth inhibition of human LNCAP cells implanted intraperitoneally to NCr nu/nu mouse at 7.13 to 28.5 umol/kg, ip administered from day 3 to 6 after implantation measured on day 7 by MTT-based hollow-fiber test; format: functional
# SK-MEL-2 [8] = experiment: Growth inhibition of human SK-MEL-2 cells implanted intraperitoneally to NCr nu/nu mouse at 7.13 to 28.5 umol/kg, ip administered from day 3 to 6 after implantation measured on day 7 by MTT-based hollow-fiber test; format: functional
# KB [9] = experiment: Growth inhibition of human KB cells implanted intraperitoneally to NCr nu/nu mouse at 7.13 to 28.5 umol/kg, ip administered from day 3 to 6 after implantation measured on day 7 by MTT-based hollow-fiber test; format: functional
# MCF7 [10] = experiment: Growth inhibition of human MCF7 cells implanted intraperitoneally to NCr nu/nu mouse at 7.13 to 28.5 umol/kg, ip administered from day 3 to 6 after implantation measured on day 7 by MTT-based hollow-fiber test; format: functional
# P388 [11] = experiment: Growth inhibition of mouse P388 cells implanted intraperitoneally to NCr nu/nu mouse at 7.13 to 28.5 umol/kg, ip administered from day 3 to 6 after implantation measured on day 7 by MTT-based hollow-fiber test; format: functional
# Lu1 [12] = experiment: Growth inhibition of human Lu1 cells implanted subcutaneously to NCr nu/nu mouse at 7.13 to 28.5 umol/kg, ip administered from day 3 to 6 after implantation measured on day 7 by MTT-based hollow-fiber test; format: functional
# SW626 [13] = experiment: Growth inhibition of human SW626 cells implanted subcutaneously to NCr nu/nu mouse at 7.13 to 28.5 umol/kg, ip administered from day 3 to 6 after implantation measured on day 7 by MTT-based hollow-fiber test; format: functional
# LNCaP [14] = experiment: Growth inhibition of human LNCAP cells implanted subcutaneously to NCr nu/nu mouse at 7.13 to 28.5 umol/kg, ip administered from day 3 to 6 after implantation measured on day 7 by MTT-based hollow-fiber test; format: functional
# SK-MEL-2 [15] = experiment: Growth inhibition of human SK-MEL-2 cells implanted subcutaneously to NCr nu/nu mouse at 7.13 to 28.5 umol/kg, ip administered from day 3 to 6 after implantation measured on day 7 by MTT-based hollow-fiber test; format: functional
# KB [16] = experiment: Growth inhibition of human KB cells implanted subcutaneously to NCr nu/nu mouse at 7.13 to 28.5 umol/kg, ip administered from day 3 to 6 after implantation measured on day 7 by MTT-based hollow-fiber test; format: functional
# MCF7 [17] = experiment: Growth inhibition of human MCF7 cells implanted subcutaneously to NCr nu/nu mouse at 7.13 to 28.5 umol/kg, ip administered from day 3 to 6 after implantation measured on day 7 by MTT-based hollow-fiber test; format: functional
# P388 [18] = experiment: Growth inhibition of mouse P388 cells implanted subcutaneously to NCr nu/nu mouse at 7.13 to 28.5 umol/kg, ip administered from day 3 to 6 after implantation measured on day 7 by MTT-based hollow-fiber test; format: functional
# Mus musculus [19] = experiment: Toxicity in NCr nu/nu mouse subcutaneously implanted with human KB cells assessed as mortality at 14.3 umol/kg, ip administered on day 10, 13, 16, 20 of implantation; format: organism-based; conditions: in vivo
# Mus musculus [20] = experiment: Toxicity in NCr nu/nu mouse subcutaneously implanted with human KB cells assessed as mortality at 28.5 umol/kg, ip administered on day 10, 13, 16, 20 of implantation; format: organism-based; conditions: in vivo
# Mus musculus [21] = experiment: Toxicity in NCr nu/nu mouse subcutaneously implanted with human KB cells assessed as change in body weight at 7.13 umol/kg, ip administered on day 10, 13, 16, 20 of implantation; format: organism-based; conditions: in vivo
# Mus musculus [22] = experiment: Toxicity in NCr nu/nu mouse subcutaneously implanted with human KB cells assessed as change in body weight at 14.3 umol/kg, ip administered on day 10, 13, 16, 20 of implantation; format: organism-based; conditions: in vivo
# Mus musculus [23] = experiment: Toxicity in NCr nu/nu mouse subcutaneously implanted with human KB cells assessed as change in body weight at 28.5 umol/kg, ip administered on day 10, 13, 16, 20 of implantation; format: organism-based; conditions: in vivo
# KB [24] = experiment: Growth inhibition of human KB cells implanted subcutaneously to NCr nu/nu mouse assessed as tumor size at 7.13 to 72.6 umol/kg, ip administered on day 10, 13, 16, 20 of implantation; format: functional, organism-based
# Mus musculus [25] = experiment: Toxicity in tumor-implanted NCr nu/nu mouse at 57.5 umol/kg, ip administered from day 3 to 6 after implantation measured on day 7 by hollow-fiber test; format: organism-based; conditions: in vivo
# Mus musculus [26] = experiment: Toxicity in tumor-implanted NCr nu/nu mouse at 144 umol/kg, ip administered from day 3 to 6 after implantation measured on day 7 by hollow-fiber test; format: organism-based; conditions: in vivo
# Lu1 [27] = experiment: Growth inhibition of ip dosed intraperitoneally implanted human Lu1 cells to NCr nu/nu mouse administered from day 3 to 6 after implantation measured on day 7 by MTT-based hollow-fiber test; format: functional, organism-based
# LNCaP [28] = experiment: Growth inhibition of ip dosed intraperitoneally implanted human LNCAP cells to NCr nu/nu mouse administered from day 3 to 6 after implantation measured on day 7 by MTT-based hollow-fiber test; format: functional, organism-based
# SK-MEL-2 [29] = experiment: Cytotoxicity against human SK-MEL-2 cells after 72 hrs by SRB assay; format: functional, cell-based; conditions: SK-MEL-2, 72 h
# P388 [30] = experiment: Cytotoxicity against mouse P388 cells after 72 hrs by SRB assay; format: functional, cell-based; conditions: P388, 72 h
# MCF7 [31] = experiment: Cytotoxicity against human MCF7 cells after 72 hrs by SRB assay; conditions: MCF7, 72 h
# LNCaP [32] = experiment: Cytotoxicity against human LNCAP cells after 72 hrs by SRB assay; format: functional, cell-based
# Lu1 [33] = experiment: Cytotoxicity against human Lu1 cells after 72 hrs by SRB assay; format: functional, cell-based; conditions: Lu1, 72 h
# [34] = Cytotoxicity against human KBV1 cells after 72 hrs by SRB assay; format: functional, cell-based; conditions: KB-V1, 72 h
# KB [35] = experiment: Cytotoxicity against human KB cells after 72 hrs by SRB assay; format: functional, cell-based
# Col2 = experiment: Cytotoxicity against human Col2 cells after 72 hrs by SRB assay; format: functional, cell-based; conditions: Col2, 72 h
# [36] = Cytotoxicity against human BC1 cells after 72 hrs by SRB assay; conditions: BC1, 72 h
# SW626 [37] = experiment: Cytotoxicity against human SW626 cells after 72 hrs by SRB assay; format: functional, cell-based; conditions: SW626, 72 h
structure (smiles),measurement,setting,value
C[C@@H]1CC[C@@]2(OC1)O[C@H]1C[C@H]3[C@@H]4CC=C5C[C@@H](O[C@@H]6O[C@H](CO)[C@@H](O[C@@H]7O[C@@H](C)[C@H](O)[C@@H](O)[C@H]7O)[C@H](O)[C@H]6O[C@@H]6O[C@@H](C)[C@H](O)[C@@H](O)[C@H]6O)CC[C@]5(C)[C@H]4CC[C@]3(C)[C@H]1[C@@H]2C [DIOSCIN],Activity,Mus musculus [1],0.8 g
same,Activity,Mus musculus [2],0.45 g
same,Activity,Mus musculus [3],-0.65 g
same,Activity,Mus musculus [4],Non-toxic
same,inhibition (INH),Lu1 [5],24.6%
same,inhibition (INH),SW626 [6],4.1%
same,inhibition (INH),LNCaP [7],36.9%
same,inhibition (INH),SK-MEL-2 [8],2.3%
same,inhibition (INH),KB [9],79%
same,inhibition (INH),MCF7 [10],0%
same,inhibition (INH),P388 [11],0%
same,inhibition (INH),Lu1 [12],0%
same,inhibition (INH),SW626 [13],8.7%
same,inhibition (INH),LNCaP [14],35.9%
same,inhibition (INH),SK-MEL-2 [15],0%
same,inhibition (INH),KB [16],3.6%
same,inhibition (INH),MCF7 [17],7.3%
same,inhibition (INH),P388 [18],0%
same,Activity,Mus musculus [19],Non-toxic
same,Activity,Mus musculus [20],Non-toxic
same,Activity,Mus musculus [21],7.1%
same,Activity,Mus musculus [22],8.4%
same,Activity,Mus musculus [23],8.6%
same,Activity,KB [24],inactive
same,Activity,Mus musculus [25],Toxic
same,Activity,Mus musculus [26],Toxic
same,Activity,Lu1 [27],Dose-dependent effect
same,Activity,LNCaP [28],Dose-dependent effect
same,IC50,SK-MEL-2 [29],1.8 µM
same,IC50,P388 [30],21.9 µM
same,IC50,MCF7 [31],22.4 µM
same,IC50,LNCaP [32],1.7 µM
same,IC50,Lu1 [33],1.2 µM
same,IC50,[34],> 23 µM
same,IC50,KB [35],20.7 µM
same,IC50,Col2,2.8 µM
same,IC50,[36],3.8 µM
same,IC50,SW626 [37],3.1 µM
